Assay results from PMC8831520, “Small molecule SWELL1 complex induction improves glycemic control and nonalcoholic fatty liver disease in murine Type 2 diabetes” (Nature Communications, 2022).
Entries after “also recorded” stand apart in the source; their conditions may differ.

Key:
eWAT adipocytes = assay: Adipocyte size in eWAT of treated mice; type: in vivo, mouse; conditions: 5 days, vs vehicle
Description: Mice epididymal white adipose tissue (eWAT) was isolated and fixed in 10% neutral buffer formalin for 24 h at 4 °C. The formalin-fixed eWAT tissue was washed twice with 1XPBS buffer and dehydrated in a series of ethanol gradient. The dehydrated tissue was embedded in paraffin wax and 10 μm sections were cut by automated microtome and mounted on positively charged slides. Hematoxylin and eosin staining of the slides was performed at the Musculoskeletal Research Center, Washington University in St. Louis. Images were captured by Zeiss Axioscop with 10X objective and analyzed by ImageJ software. Measurement of adipocyte area was performed using the polygon selection tool of ImageJ. All quantifications were performed by blinded independent observers.

ICl,SWELL = test system: ICl,SWELL; parameters: method as in PMID 11724753; conditions: cited from earlier work
[1] = parameters: method as in Zhang et al., Experimental Neurology, 2008; conditions: ref Zhang et al., Experimental Neurology, 2008; cited from earlier work
HFD-T2D mice = assay: NAFLD in HFD-fed mice: liver triglycerides, histology, NAS; type: in vivo, mouse
Description: Gross liver weights were measured and identical sections from the right medial lobe of the liver were dissected for further examinations. Total triglyceride content was determined by homogenization of 10–50 mg of tissue in 1.5 ml of chloroform:methanol (2:1 v/v) followed by centrifugation at 16,260×g for 10 min at 4 °C. A 20 µl of the supernatant was evaporated in a 1.5 ml microcentrifuge tube for 30 min. Triglyceride content was determined by adding 100 µl of Infinity Triglyceride Reagent (Fisher Scientific) to the dried sample followed by 30 min incubation at RT. The samples were then transferred to a 96-well plate along with standards (0–2000 mg/dl) and absorbance was measured at 540 nm and the final concentration was determined by normalizing to tissue weight. For histological examination, liver sections were fixed in 10% zinc formalin and paraffin-embedded for sectioning. Hematoxylin and eosin (H&E) stained sections were then assessed for steatosis grade, lobular inflammation, and hepatocyte ballooning for nonalcoholic fatty liver disease (NAFLD) scoring[46],[95],[96].

cadaveric human islets = assay: GSIS perifusion of palmitate-treated human islets; type: cell-based; conditions: 10 µM for 4 days prior to and during 1 mM palmitate 16 h, washed off during GSIS
Description: Cadaveric human islets were obtained from the Integrated Islet Distribution Program (IIDP), Prodo Laboratories, and the Alberta Diabetes Institute Islet Core. The human islets obtained from the Integrated Islet Distribution program and Prodo laboratories were exempt from Institutional Review Board approval under 45 CRR 46.101 (b) category (4) and 45 CFR 46.102 h, respectively. Human islets were obtained from the Alberta Diabetes Institute IsletCore at the University of Alberta in Edmonton (http://www.bcell.org/adi-isletcore.html) with the assistance of the Human Organ Procurement and Exchange (HOPE) program, Trillium Gift of Life Network (TGLN), and other Canadian organ procurement organizations. Islet isolation was approved by the Human Research Ethics Board at the University of Alberta (Pro00013094). All donors’ families gave informed consent for the use of pancreatic tissue in research. Human islets were cultured in RPMI media with 2% FBS overnight. […] Insulin concentrations were further determined using a commercially available ELISA kit (Mercodia). The area under the curve (AUC) for the high-glucose-induced insulin release was calculated for time points between 50 to 74/84 min. At the completion of the experiment, islets were further lysed by the addition of RIPA buffer and the amount of insulin was detected by ELISA.

[2] = test system: SWELL1/LRRC8a-e mRNA in 3T3-F442A cells; assay: qRT-PCR of LRRC8 family mRNA; type: cell-based, murine; conditions: 10 µM, 96 h
Description: RNA samples were isolated using the PureLink RNA kit (Life Technologies) as per the manufacturer’s instructions. Complementary DNA (cDNA) synthesis was carried out using an iScript Reverse Transcriptase kit (Bio-Rad). […] Each sample measurement was carried out in triplicate. GAPDH was used as the internal standard and the fold change was calculated relative to GAPDH was normalized to vehicle group. The following qRT-PCR primers (5′ to 3′) were used: GAPDH forward—[…] and reverse— […]; SWELL1 forward—[…] and reverse— […]; LRRC8b forward—[…] and reverse— […]; LRRC8c forward—[…] and reverse—[…]; LRRC8d forward—[…] and reverse— […]; LRRC8e forward—[…] and reverse— […], respectively.

Which adipocyte size (eWAT adipocytes; HFD-fed mice) does the source give for `CCCCC1(C2CCCC2)Cc2cc(OCCCC(=O)O)c(Cl)c(Cl)c2C1=O` (stereo not shown) [SN-401, 4-((2-butyl-6,7-dichloro-2-cyclopentyl-1-oxo-2,3-dihydro-1H-inden-5-yl)oxy)butanoic acid] here?
The adipocyte size was “unchanged; also recorded: no significant differences”.

What about the adipocyte size reduction (eWAT adipocytes; KKAy mice) of the same compound?
The adipocyte size reduction was 9%.

What about the IC50 (ICl,SWELL) of the same compound?
The IC50 was roughly 5 µM.

What about the “blood brain barrier passage” value [1] of the same compound?
The value was “does not cross the blood brain barrier”.

And the “reduction in body weight compared to vehicle” value (HFD-T2D mice; 16 weeks HFD then intermittent dosing over 5 weeks)?
The value was 14%.

And the “improvement of NAFLD-activity score (NAS)” value (HFD-T2D mice; 16 weeks HFD then intermittent dosing over 5 weeks, vs vehicle)?
Its value is greater than 2 points.

And the “hepatic steatosis and hepatocyte damage” value (HFD-T2D mice; histologic evaluation, vs vehicle)?
The value was “significant reductions”.

What about the hepatic triglyceride concentrations (HFD-T2D mice; vs vehicle) of the same compound?
The hepatic triglyceride concentrations was “lower”.

What about the “glucose-stimulated insulin secretion after palmitate” value (cadaveric human islets) of the same compound?
The value was “normalized”.

What about the “SWELL1 and LRRC8b-e mRNA” value [2] of the same compound?
The value was “not associated with increases in SWELL1 mRNA”.
